Experimental data taken from paper PMC12281142, “A potent phenylalkylamine disrupts mycobacterial membrane bioenergetics and augments bactericidal activity of bedaquiline” (iScience, 2025).

Assays:
[1] = tested on: Mtb H37Rv; conditions: drug sensitive and resistant strains of Mtb H37Rv; cited from earlier work
[2] = tested on: M. bovis BCG; type: cell-based, Mycobacterium bovis BCG

SMILES	decrease in BDQ MIC caused by VP [1]	spontaneous mutation frequency [2]
COc1ccc(CCN(C)CCCC(C#N)(c2ccc(OC)c(OC)c2)C(C)C)cc1OC (centres unmarked) [VP, verapamil, reference compound]	20 fold	
CCCCCCCCC(C#N)(CCCN(C)CCc1ccc(OC)c(OC)c1)c1ccc(OC)c(OC)c1 (centres unmarked) [PhA2]		< 10^−9 /CFU
